Source: US20110039763A1, “TARGETED ANTIMICROBIAL MOIETIES” (C3 JIAN, INC., priority 2009, published 2011)
Entries after “also recorded” stand apart in the source; their conditions may differ.

How the values were obtained:
microorganisms [1] = assay: Peptide activities: targeting/binding, antimicrobial, growth or phenotype altering (Tables 7, 8); format: cell-based; details: peptides having multiple activities
microorganisms [2] = assay: Targeting peptide binding to target microorganisms (Tables 3, 10, 12); details: microorganism(s) the targeting peptide binds; binding in aqueous buffers varied with peptide solubility, preferably 1x PBS
microorganisms [3] = assay: Morphology, biofilm and growth disrupting peptides (Table 5); format: cell-based; set-up: key: A: Peptide aggregates; B: Less hyphal formation; Clumps; Diffuse clumps and small polyps; F: Diffuse growth; H: Thin; I: Growth inhibition; Microcolony formation; Rippled; Small polyps; Thick; W: Halo formation on top, microlonies on bottom
Excerpt: In certain embodiments peptides that induce alterations in phenotype or other biological activities can also be used as antimicrobial effector moieties.

Row | Substance | Activities (microorganisms [1]) | Target(s) (microorganisms [2]) | Organism, effect: E. coli (microorganisms [3]) | Organism, effect: S. epidermidis (microorganisms [3]) | Organism, effect: C. jejuni (microorganisms [3]) | Organism, effect: E. faecalis (microorganisms [3]) | Organism, effect: MRSA (microorganisms [3]) | Organism, effect: S. pneumoniae (microorganisms [3])
1 | PF-383: peptide having multiple activities (chain 1 WSEIEINTKQSN; chain 2 WSEIEINTKQSN; Peptide with targeting and/or antimicrobial activity) | G B | S. epidermidis; also recorded: B. subtilis; also recorded: B. fragilis; also recorded: E. coli; also recorded: C. jejuni | E. coli (R) | S. epidermidis (C) |  |  |  | 
2 | PF-385: peptide having multiple activities (chain 1 MIKKSILKIKYYVPVLISLTLILSA; chain 2 MIKKSILKIKYYVPVLISLTLILSA; Peptide with targeting and/or antimicrobial activity) | G B | S. epidermidis; also recorded: E. coli; also recorded: P. aeruginosa; also recorded: C. albicans; also recorded: E. faecalis | E. coli (A) |  |  |  |  | 
3 | PF-390: peptide having multiple activities (chain 1 VVAYVITQVGAIRF; chain 2 VVAYVITQVGAIRF; Peptide with targeting and/or antimicrobial activity) | G B | S. epidermidis and P. aeruginosa and C. albicans and MRSA | E. coli (C) | S. epidermidis (D) | C. jejuni (D) | E. faecalis (D) | MRSA (D) | S. pneumoniae (D)
4 | PF-392: peptide having multiple activities (chain 1 DPAGCNDIVRKYCK; chain 2 DPAGCNDIVRKYCK; Peptide with targeting and/or antimicrobial activity) | G B | S. epidermidis; also recorded: B. subtilis; also recorded: S. pneumoniae; also recorded: C. jeikeium; also recorded: C. jejuni |  |  | C. jejuni (A) | E. faecalis (A) | MRSA (S) | 
5 | PF-393: peptide having multiple activities (chain 1 DLVQSILSEFKKSG; chain 2 DLVQSILSEFKKSG; Peptide with targeting and/or antimicrobial activity) | G B | S. epidermidis and E. coli and C. albicans and MRSA and S. pneumoniae and C. jejuni |  | S. epidermidis (R) | C. jejuni (R) | E. faecalis (A) | MRSA (C) | S. pneumoniae (R)
6 | PF-394: peptide having multiple activities (chain 1 VLKEECYQKN; chain 2 VLKEECYQKN; Peptide with targeting and/or antimicrobial activity) | G B | S. epidermidis and MRSA and C. jejuni |  |  |  | E. faecalis (A) | MRSA (C) | 
7 | PF-395: peptide having multiple activities (chain 1 YCVPLGNMGNMNNKIW; chain 2 YCVPLGNMGNMNNKIW; Peptide with targeting and/or antimicrobial activity) | G B | S. epidermidis; also recorded: E. coli; also recorded: P. aeruginosa; also recorded: S. pneumoniae; also recorded: E. faecalis; also recorded: C. jeikeium; also recorded: C. jejuni | E. coli (R) | S. epidermidis (C) |  |  | MRSA (C) | 
